Assays:
[1] = molecular target: host eukaryotic DNA polymerase; details: cited from earlier work
[2] = cited from earlier work
HSV-1 = details: cited from earlier work
[3] = test system: HSV-1 KOS infected Vero cells; assay: Efficacy of implants at preventing cytopathic effect in cell culture; type: cell-based; details: 48 hours post-infection; 0.22 ug ACV or two implants per well
Procedure: A six-well culture plate was prepared with 4 mL of Dulbecco's modified Eagles' medium (DMEM) (Invitrogen) supplemented with 10% fetal bovine serum and 1% penicillin-streptomycin-Amphotericin B solution (Mediatech) per well. […] The plate was incubated for two days at 37° C. and 5% CO2. Vero cells (ATCC CCL-81) were then added to each well and allowed to grow for another 48 hours until almost confluent. HSV-1 KOS (9.0×10^3 pfu) (ATCC VR-1493) was added to one of each of the paired wells, and 24 and 48 hours later the cells were photographed with a Nikon D1 2.6 megapixel digital camera, set in black and white mode, attached to an Olympus CK-40 microscope. The resulting digital images were compiled for presentation with Adobe Photoshop.
All mock-infected Vero cells remained healthy 48 hours after infection (FIGS. 8A-8C).

## Nc1nc2c(ncn2COCCOP(=O)(O)OP(=O)(O)OP(=O)(O)O)c(=O)[nH]1 [ACV-triphosphate, ACV triphosphate]
[1]
  Ki: 960 ± 80 nM

## CC(C)[C@H](N)C(=O)OCCOCn1cnc2c(=O)[nH]c(N)nc21 [valacyclovir]
[2]
  bioavailability, of the oral dose consumed: about 50%

## Nc1nc2c(ncn2COCCO)c(=O)[nH]1 [ACV, acyclovir]
HSV-1
  50% inhibitory dose against HSV-1: about 0.03 ug/mL
[3]
  cytopathic effect (CPE) in HSV-1-infected Vero cells: Moderate CPE (cell rounding)
  plaque formation in HSV-1-infected Vero cells: no plaque formation
